In patent US4360595A, “Fermentation process for producing anandimycin” (Bristol-Myers Company, priority 1981, dated 1982):
Converted amounts (≈) assume the structure as drawn.

Tests used:
E. coli 15119 = assay: in vitro MIC, standard tube dilution procedure; format: cell-based; conditions: Escherichia coli, 15119, read-out: Minimum Inhibitory Concentration
Protocol: (§1) The in vitro minimum inhibitory concentrations (MIC) of anandimycin were determined against a variety of microorganisms using the standard tube dilution procedure.

E. coli 20341-1 = assay: in vitro MIC, standard tube dilution procedure; format: cell-based; conditions: Escherichia coli, 203411, read-out: Minimum Inhibitory Concentration
Protocol: as §1

Ent. cloacae 9659 = assay: in vitro MIC, standard tube dilution procedure; format: cell-based; conditions: Enterobacter cloacae, 9659, read-out: Minimum Inhibitory Concentration
Protocol: as §1

K. pneumoniae 15130 = assay: in vitro MIC, standard tube dilution procedure; format: cell-based; conditions: Klebsiella pneumoniae, 15130, read-out: Minimum Inhibitory Concentration
Protocol: as §1

Pr. mirabilis 9900 = assay: in vitro MIC, standard tube dilution procedure; format: cell-based; conditions: Proteus mirabilis, 9900, read-out: Minimum Inhibitory Concentration
Protocol: as §1

Pr. vulgaris 21559 = assay: in vitro MIC, standard tube dilution procedure; format: cell-based; conditions: Proteus vulgaris, 21559, read-out: Minimum Inhibitory Concentration
Protocol: as §1

Ps. aeruginosa 9843A = assay: in vitro MIC, standard tube dilution procedure; format: cell-based; conditions: Pseudomonas aeruginosa, 9843A, read-out: Minimum Inhibitory Concentration
Protocol: as §1

Ser. marcescens 20019 = assay: in vitro MIC, standard tube dilution procedure; format: cell-based; conditions: Serratia marcescens, 20019, read-out: Minimum Inhibitory Concentration
Protocol: as §1

[1] = test system: Staph. aureus (penicillin-resistant) 9606; assay: in vitro MIC, standard tube dilution procedure; format: cell-based; conditions: Staphylococcus aureus, read-out: Minimum Inhibitory Concentration
Protocol: as §1

Staph. aureus 9587 = assay: in vitro MIC, standard tube dilution procedure; format: cell-based; conditions: Staphylococcus aureus, 9587, read-out: Minimum Inhibitory Concentration
Protocol: as §1

Str. faecalis 20,588 = assay: in vitro MIC, standard tube dilution procedure; format: cell-based; conditions: Enterococcus faecalis, read-out: Minimum Inhibitory Concentration
Protocol: as §1

Str. pneumoniae 9585 = assay: in vitro MIC, standard tube dilution procedure; format: cell-based; conditions: Streptococcus pneumoniae, 9585, read-out: Minimum Inhibitory Concentration
Protocol: as §1

Str. pyogenes 9604 = assay: in vitro MIC, standard tube dilution procedure; format: cell-based; conditions: Streptococcus pyogenes, 9604, read-out: Minimum Inhibitory Concentration
Protocol: as §1

E. coli = assay: lysogenic bacterial induction (ILB) assay; format: cell-based
Description: Analytical high pressure liquid chromatography, Bacillus subtilis zone of inhibition, lysogenic bacterial induction and P388 mouse tumor assays are used throughout the above-described separation processes to monitor relative levels of anandimycin and co-produced substances.

P-388 leukemia = assay: transplantable mouse tumor P-388 leukemia; format: in vivo, mouse (CDF1 female mice); conditions: for MST: control 9.0 days; for Effect MST % T/C: ≥ 125 significant
Protocol: Anandimycin was also tested against the transplantable mouse tumor P-388 leukemia. The methodology used generally followed the protocols of the National Cancer Institute (Cancer Chemotherapy Rep., Part 3, 3, 1-103 (1972). The essential experimental details are given at the bottom of the following table. Two different dose regimens are tested: single dose on day 1 and three doses given on days 1, 5 and 9. The optimal dose was 64 mg/kg. single dose.
Tumor inoculum: 10^6 ascites cells implanted
Host: CDF1 .female. mice
Evaluation: MST = median survival
Effect: % T/C = (MST treated/MST control) ×
Criteria: % T/C ≥ 125 considered significant antitumor
Tox: […] 4/6 mice alive on day 5
AWC = average weight gain (treatedcontrol) in grams (on day 4)

[2] = antimicrobial / antibiotic activity (in words); format: cell-based
[3] = solubility in organic solvents (trituration, chromatography); format: physicochemical
Description: The solids obtained from extraction of the whole broth are next washed with diethyl ether to remove any lard oils and antifoams used in the fermentation. […] To remedy this problem a simple organic solvent trituration scheme was developed which effects a gross separation of the yellow pigments and another class of antitumor agents produced by strain C-22,437 (rachelmycin) from anandimycin on the basis of differential solubility. […] The first step involves trituration of the extraction solids with acetone. The resulting filtrate contains another antitumor substance which is active in the lysogenic bacteria induction assay and the P388 mouse tumor system (rachelmycin). The insoluble solid from the acetone trituration contains the yellow pigments along with a complex of anandimycin and another similar compound. The second phase of the process involves trituration with a ternary organic solvent system 40:30:30(^v/v) chloroform:methanol:tetrahydrofuran. The soluble fraction contains the yellow pigments. […] Substantially pure anandimycin is separated from the enriched mixture using high pressure liquid chromatography on silica gel as described in more detail below.
The analytical solvent system routinely used is hexane:ethyl acetate:isopropanol (30:70:3^v /v) along with 0.1 to 0.4 part water depending on the relative activity state of the silica gel surface in the column being used. If tailing effects are observed, then typically one increases the water content of the solvent system within the 0.1-0.4 part range to improve peak symmetry, thereby permitting a more quantitative analysis.
The preparative solvent system is ethyl acetate:isopropanol:water (87:13:0.5^v /v). […] A shave-recycle method involves increasing the effective silica gel column length through the employment of continuous multiple pass chromatography of the anandimycin-component II band. […] Initial chromatography gave anandimycin enriched to 70-85% purity. Accumulated solids are rechromatographed to yield material of >90% purity. […]

tumors = assay: antitumor activity (in words); set-up: species or system experimental animals; conditions: in vivo

## C=Cc1cc(OC)c2c(c1)c(=O)oc1c2cc(OC)c2c(O)ccc(C3OC(C(C)O)C(O)C3O)c21 (stereo not shown) [Anandimycin]
E. coli 15119
  MIC: > 63 µg/mL
E. coli 20341-1
  MIC: > 63 µg/mL
Ent. cloacae 9659
  MIC: > 63 µg/mL
K. pneumoniae 15130
  MIC: > 63 µg/mL
Pr. mirabilis 9900
  MIC: > 63 µg/mL
Pr. vulgaris 21559
  MIC: 2 µg/mL (≈ 4.04 µM)
Ps. aeruginosa 9843A
  MIC: > 63 µg/mL
Ser. marcescens 20019
  MIC: > 63 µg/mL
[1]
  MIC: 0.25 µg/mL (≈ 0.506 µM)
Staph. aureus 9587
  MIC: 0.06 µg/mL (≈ 0.121 µM)
Str. faecalis 20,588
  MIC: 0.016 µg/mL (≈ 0.0324 µM)
Str. pneumoniae 9585
  MIC: 0.13 µg/mL (≈ 0.263 µM)
Str. pyogenes 9604
  MIC: 0.13 µg/mL (≈ 0.263 µM)
E. coli; above 1.6 μg/ml
  toxicity to the host organism (E. coli): toxic to the host organism
E. coli; maximum concentration of 1.6 μg/ml
  ILB activity: completely devoid of ILB activity
P-388 leukemia; d.1,5&9, IP, 0.5 mg/kg/inj.
  AWC Day 4: -0.1 gm.
  Survivors Day 5(30): 6/6
  MST: 9.0 days
  Effect MST % T/C: 100%
P-388 leukemia; d.1,5&9, IP, 1 mg/kg/inj.
  AWC Day 4: +0.6 gm.
  Survivors Day 5(30): 6/6
  MST: 9.0 days
  Effect MST % T/C: 100%
P-388 leukemia; d.1,5&9, IP, 2 mg/kg/inj.
  AWC Day 4: +0.2 gm.
  Survivors Day 5(30): 6/6
  MST: 9.0 days
  Effect MST % T/C: 100%
P-388 leukemia; d.1,5&9, IP, 4 mg/kg/inj.
  AWC Day 4: +0.7 gm.
  Survivors Day 5(30): 6/6
  MST: 10.5 days
  Effect MST % T/C: 117%
P-388 leukemia; d.1,5&9, IP, 8 mg/kg/inj.
  AWC Day 4: +0.2 gm.
  Survivors Day 5(30): 6/6
  MST: 13.5 days
  Effect MST % T/C: 150%
P-388 leukemia; d.1,5&9, IP, 16 mg/kg/inj.
  AWC Day 4: 0 gm.
  Survivors Day 5(30): 5/5
  MST: 13.0 days
  Effect MST % T/C: 144%
P-388 leukemia; d.1, IP, 0.5 mg/kg/inj.
  AWC Day 4: -0.1 gm.
  Survivors Day 5(30): 6/6
  MST: 9.0 days
  Effect MST % T/C: 100%
P-388 leukemia; d.1, IP, 1 mg/kg/inj.
  AWC Day 4: -0.1 gm.
  Survivors Day 5(30): 6/6
  MST: 9.0 days
  Effect MST % T/C: 100%
P-388 leukemia; d.1, IP, 2 mg/kg/inj.
  AWC Day 4: -0.2 gm.
  Survivors Day 5(30): 5/5
  MST: 10.0 days
  Effect MST % T/C: 111%
P-388 leukemia; d.1, IP, 4 mg/kg/inj.
  AWC Day 4: -0.9 gm.
  Survivors Day 5(30): 6/6
  MST: 10.0 days
  Effect MST % T/C: 111%
P-388 leukemia; d.1, IP, 8 mg/kg/inj.
  AWC Day 4: -0.2 gm.
  Survivors Day 5(30): 6/6
  MST: 11.5 days
  Effect MST % T/C: 128%
P-388 leukemia; d.1, IP, 16 mg/kg/inj.
  AWC Day 4: -0.6 gm.
  Survivors Day 5(30): 6/6
  MST: 11.0 days
  Effect MST % T/C: 122%
P-388 leukemia; d.1, IP, 32 mg/kg/inj.
  AWC Day 4: -0.6 gm.
  Survivors Day 5(30): 6/6
  MST: 13.0 days
  Effect MST % T/C: 144%
P-388 leukemia; d.1, IP, 64 mg/kg/inj.
  AWC Day 4: -0.3 gm.
  Survivors Day 5(30): 6/6
  MST: 14.5 days
  Effect MST % T/C: 161%
P-388 leukemia; single dose
  optimal dose: 64 mg/kg
[2]
  antimicrobial / antibiotic activity: exhibit antimicrobial activity
[3]; acetone, 40:30:30 chloroform:methanol:tetrahydrofuran
  solubility in trituration solvents: insoluble
[3]; solvents for (preparative) chromatography
  solubility in chromatography solvents: poor solubility
tumors
  antitumor activity: inhibit the growth of tumors in experimental animals
